Read-outs that look alike come from different tables or passages of the source.
Key:
human 5-HT1A receptor [1] = target: T1, human 5-HT1A receptor (Homo sapiens (Human), UniProt P08908); assay: Test 2: agonist activity for human 5-HT1A receptor ([35S]GTPγS binding); type: biochemical; details: for Emax at 10 µM / 5-HT1A agonist activity Emax: agonist activity in the presence of 10 μM of compound, relative to 100 μmol/L 5-HT
Method: Test 2: Evaluation of Agonist Activity for Human 5-HT1A Receptor
CHO cell membrane fraction in which human 5-HT1A receptor was expressed as used in Test 1 was purchased. To a buffer containing guanosine diphosphate were added a test compound dissolved in DMSO, each receptor membrane sample diluted with buffer, and [^35S] Guanosine 5′-O-[gamma-thio]triphosphate (GTPγS). The mixture was incubated at room temperature for 60 minutes. Then, the mixture was added quickly on a glassfiber filter plate (Multiscreen FB, Millipore, Inc.), and vacuum-filtered. Radioactivity remaining on the […] was measured with a liquid scintillation counter. Agonist activity was calculated from the following formula.

human D2 receptor = human D2 receptor (Homo sapiens (Human), UniProt P14416); assay: Test 1: binding activity for human D2 receptor ([3H]Spiperone); details: for Ki: [3H]Spiperone, CHO cell membrane fraction; for D2 Ki/5-HT1A Ki: ratio of D2 Ki to 5-HT1A Ki; for D2 Ki/5-HT2A Ki: ratio of D2 Ki to 5-HT2A Ki
Method: (§1) Test 1: Evaluation of binding activity for human 5-HT1A receptor, human 5-HT2A receptor, and human D2 receptor
(§2) Binding affinity of the present compound for human 5-HT1A receptor, human 5-HT2A receptor, and human D2 receptor was measured by the following procedures.
(§3) Each mixture was incubated at room temperature for 60 minutes. Then, the mixture was added quickly on a glassfiber filter plate (Multiscreen FB, Millipore, Inc.) coated with 0.3% aqueous polyethylenimine, and vacuum-filtered. Radioactivity remaining on the filter was measured with a liquid scintillation counter (PerkinElmer, Inc.). Binding inhibition rate was calculated from the following formula.
(§4) Ki of each compound was calculated from the following formula.
(§5) Binding inhibition constant (Ki)=IC50/(1+S/Kd) wherein S is concentration of ligand; Kd is a binding dissociation constant of ligand to membrane, which is calculated from a saturated binding experiment conducted with the same cell membrane. A small Ki value means strong binding ability to a receptor.

human 5-HT1A receptor [2] = target: T1, human 5-HT1A receptor; assay: Test 1: binding activity for human 5-HT1A receptor ([3H]8-OH-DPAT); details: CHO cell membrane fraction
Method: as §1, §2, §3
IC50 value was calculated by Hill analysis (Physiology, 1910, 40, 190-200). Ki of each compound was calculated from the following formula.
as §5

[3] = Test 4: metabolic stability test in human hepatic microsome; type: in vitro ADME; details: 0.1 mg/mL microsome, 0.1 μmol/L compound, 37° C., 30 minutes
Method: Test 4: Metabolic Stability Test in Human Hepatic Microsome
The stability of the present compound in human hepatic microsome metabolism was evaluated as mentioned below. Human hepatic microsome was obtained from Xenontech. Human hepatic microsome, NADPH, and each test compound were mixed in 25 mmol/L phosphate buffer solution (pH 7.4) to reach the following concentrations as shown below, and the mixture was incubated at 37° C. for 30 minutes. • Human hepatic microsome: 0.1 mg/mL • NAPDH: 3.2 mmol/L • Test compound: 0.1 μmol/L
The residual ratio of the test compound in each sample after 30 minutes was measured by LC-MS, and the metabolic stability in human hepatic microsome was calculated from the following formula. Metabolic stability in human hepatic microsome (mL/min/mg protein)=−LN(residual ratio)/30/0.1

human 5-HT2A receptor [4] = target: T2, human 5-HT2A receptor (Homo sapiens (Human), UniProt P28223); assay: Test 1: binding activity for human 5-HT2A receptor ([3H]Ketanserin); details: CHO cell membrane fraction
Method: as §1, §2, §3, §4, §5

hERG channel = hERG channel (Homo sapiens (Human), UniProt Q12809); assay: Test 6-1: inhibitory activity for hERG channel (auto patch clamp, Qpatch); type: cell-based; details: whole cell patch clamp, read-out: hERG inhibition IC50
Method: Test 6-1: Evaluation of Inhibitory Activity for hERG Channel
Inhibitory activity of the present compound for hERG channel was measured by whole cell patch clamp method with an auto patch clamp system using CHO cells in which hERG channel involved in human rapidly activating delayed rectifier potassium current (IKr) was forcibly expressed.
(Preparation of cell suspension)
hERG-CHO cells purchased from ChanTest Cop. were cultured in a CO2 incubator at 37° C., and dissociated from a flask with trypsin shortly before the measurement of hERG current, to prepare a cell suspension.
(Preparation of Solution)
Extracellular and intracellular fluid used in the measurement were prepared as follows.
Intracellular fluid: 5.4 mmol/L CaCl2, 1.8 mmol/L MgCl2, 10 mmol/L HEPES, 31 mmol/L KOH, 10 mmol/L EGTA, 120 mmol/L KCl, 4 mmol/L Na2-ATP
Test compound solution: Test compound was dissolved in DMSO to reach the concentration of 2 mmol/L or 20 mmol/L, in order to prepare a test compound solution. […] (Measurement of Current Value and Data Analysis)
The cell suspension, the extracellular fluid, the intracellular fluid, and the measurement plate were set in the auto patch clamp system, and hERG current was measured by whole cell patch clamp method. […] Each pulse interval was 15 seconds. The data analysis was carried out with Qpatch Assay Software (Biolin Scientific). The test was carried out by applying incrementally 4 concentrations of each test compound, and the average of the maximum peak tail currents which were obtained from the last 3 stimulations in each concentration was determined as the evaluated data.

human 5-HT2A receptor [5] = target: T2, human 5-HT2A receptor; assay: Test 3: antagonist activity for human 5-HT2A receptor (aequorin luminescence, CHO-K1 cells); type: cell-based; details: against 1 nmol/L 5-HT
Method: Test 3: Evaluation of Antagonist Activity for Human 5-HT2A Receptor
Aequorin, Gα16 protein, and each receptor were transiently expressed in CHO-K1 cells (Chinese hamster ovary). […] Antagonist activity was calculated from the following formula.
Antagonist activity (%)=100×{(Luminescence of well in the presence of 1 nmol/L 5-HT−Luminescence of well containing solvent)−(Luminescence of well in the presence of test compound and 1 nmol/L 5-HT−Luminescence of well containing solvent)}/(Luminescence of well in the presence of 1 nmol/L 5-HT−Luminescence of well containing solvent)

[6] = human, CHO cells that express hERG

human D2 receptor, sequence (P14416 whole entry): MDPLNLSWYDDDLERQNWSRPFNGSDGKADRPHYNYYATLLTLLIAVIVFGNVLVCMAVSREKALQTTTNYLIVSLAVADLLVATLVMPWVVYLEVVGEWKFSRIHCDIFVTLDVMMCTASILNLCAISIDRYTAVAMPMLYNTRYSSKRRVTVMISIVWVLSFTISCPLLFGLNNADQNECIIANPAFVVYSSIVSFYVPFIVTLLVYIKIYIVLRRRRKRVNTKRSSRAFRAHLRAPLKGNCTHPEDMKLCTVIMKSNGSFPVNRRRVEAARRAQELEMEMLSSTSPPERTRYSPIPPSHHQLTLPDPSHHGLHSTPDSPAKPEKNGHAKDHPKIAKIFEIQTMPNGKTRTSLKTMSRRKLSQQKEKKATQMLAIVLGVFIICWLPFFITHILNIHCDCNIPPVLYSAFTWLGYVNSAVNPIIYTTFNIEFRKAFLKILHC
T1 sequence (P08908 whole entry): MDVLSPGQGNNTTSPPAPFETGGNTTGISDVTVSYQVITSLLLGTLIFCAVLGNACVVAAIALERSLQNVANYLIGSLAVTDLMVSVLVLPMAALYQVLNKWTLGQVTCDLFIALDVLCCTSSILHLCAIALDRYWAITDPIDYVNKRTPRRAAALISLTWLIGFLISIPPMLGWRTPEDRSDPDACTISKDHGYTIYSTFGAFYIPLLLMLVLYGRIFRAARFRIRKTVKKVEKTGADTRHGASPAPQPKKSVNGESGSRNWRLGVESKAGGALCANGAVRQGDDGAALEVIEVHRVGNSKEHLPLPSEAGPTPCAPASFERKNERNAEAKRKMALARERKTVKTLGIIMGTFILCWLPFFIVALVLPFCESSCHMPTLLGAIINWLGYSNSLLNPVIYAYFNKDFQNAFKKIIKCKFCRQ
hERG channel, sequence (Q12809 whole entry): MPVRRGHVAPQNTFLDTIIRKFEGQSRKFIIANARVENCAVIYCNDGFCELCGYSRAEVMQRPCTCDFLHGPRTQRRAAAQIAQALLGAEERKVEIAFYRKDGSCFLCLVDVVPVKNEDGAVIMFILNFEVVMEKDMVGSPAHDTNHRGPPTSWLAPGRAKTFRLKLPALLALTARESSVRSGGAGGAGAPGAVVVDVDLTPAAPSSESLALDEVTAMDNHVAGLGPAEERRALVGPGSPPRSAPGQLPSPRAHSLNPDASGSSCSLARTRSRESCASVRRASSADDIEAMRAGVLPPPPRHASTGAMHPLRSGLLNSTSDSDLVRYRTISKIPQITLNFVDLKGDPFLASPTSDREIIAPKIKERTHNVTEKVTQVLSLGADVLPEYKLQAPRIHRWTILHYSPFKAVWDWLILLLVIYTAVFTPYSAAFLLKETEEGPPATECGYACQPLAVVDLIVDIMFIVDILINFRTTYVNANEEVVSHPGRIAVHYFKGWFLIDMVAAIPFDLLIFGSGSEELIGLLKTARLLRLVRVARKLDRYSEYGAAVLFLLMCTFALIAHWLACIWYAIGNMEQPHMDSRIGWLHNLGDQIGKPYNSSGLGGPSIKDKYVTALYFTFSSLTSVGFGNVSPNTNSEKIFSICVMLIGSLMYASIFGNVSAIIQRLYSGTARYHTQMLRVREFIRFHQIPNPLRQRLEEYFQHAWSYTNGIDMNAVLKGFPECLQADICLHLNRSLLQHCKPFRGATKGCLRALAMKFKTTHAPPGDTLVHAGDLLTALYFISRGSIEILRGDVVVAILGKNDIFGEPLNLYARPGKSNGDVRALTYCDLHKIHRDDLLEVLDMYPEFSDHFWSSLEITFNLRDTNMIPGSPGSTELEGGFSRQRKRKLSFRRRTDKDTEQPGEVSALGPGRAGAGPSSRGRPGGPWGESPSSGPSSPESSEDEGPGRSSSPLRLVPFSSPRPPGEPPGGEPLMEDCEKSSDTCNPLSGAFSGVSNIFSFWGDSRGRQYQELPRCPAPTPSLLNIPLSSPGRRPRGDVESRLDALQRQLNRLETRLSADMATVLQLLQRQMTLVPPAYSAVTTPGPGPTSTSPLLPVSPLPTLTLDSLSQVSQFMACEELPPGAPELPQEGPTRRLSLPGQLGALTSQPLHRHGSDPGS
T2 sequence (P28223 whole entry): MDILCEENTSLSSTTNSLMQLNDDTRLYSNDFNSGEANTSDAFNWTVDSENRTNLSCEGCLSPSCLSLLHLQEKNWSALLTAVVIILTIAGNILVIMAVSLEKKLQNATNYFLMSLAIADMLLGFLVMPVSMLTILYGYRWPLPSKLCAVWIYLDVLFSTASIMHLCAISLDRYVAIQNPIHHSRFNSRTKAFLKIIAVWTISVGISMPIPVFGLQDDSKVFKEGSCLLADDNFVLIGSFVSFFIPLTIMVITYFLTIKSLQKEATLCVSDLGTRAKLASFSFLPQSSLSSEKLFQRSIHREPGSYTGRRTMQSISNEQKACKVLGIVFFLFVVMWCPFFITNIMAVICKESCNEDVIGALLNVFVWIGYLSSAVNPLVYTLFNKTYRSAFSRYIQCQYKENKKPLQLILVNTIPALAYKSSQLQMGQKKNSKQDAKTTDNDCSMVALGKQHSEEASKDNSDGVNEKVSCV

Row | Ki (human 5-HT1A receptor [2]) [nM] | SMILES | Emax at 10 µM (human 5-HT1A receptor [1]) [%] | Metabolic stability in human hepatic microsome [3] [mL/min/mg protein] | Ki (human 5-HT2A receptor [4]) [nM] | also measured
1 | – | Cn1nc(Br)c2c1CCN(CCN1CCN(c3nsc4ccccc34)CC1)C2=O [Example 69] | – | – | – | EC50 (human 5-HT1A receptor [1]; concentration at which half the activity of Emax was obtained): 33.9 nM
2 | 7.03 | O=c1c2ncccc2ccn1CCN1CCN(c2nsc3cc(F)ccc23)CC1 [Example 12] | 32 | 0.02 | – | Ki (human D2 receptor): 311 nM; D2 Ki/5-HT1A Ki (human D2 receptor): 44; D2 Ki/5-HT2A Ki (human D2 receptor): 111
3 | 0.84 | Cc1nc2c(o1)CCN(CCN1CCN(c3noc4ccccc34)CC1)C2=O [Example 39] | 61 | 0.016 | – | Ki (human D2 receptor): 1860 nM
4 | – | O=C1c2cnccc2CCN1CCN1CCC(c2noc3ccccc23)CC1 [Example 13] | – | <0.01 | – | IC50 (hERG channel; hERG-CHO cells): 1100 nM; IC50 (human 5-HT2A receptor [5]): 71 nM
5 | – | Cn1nc(Br)c2c1CCN(CCN1CCC(c3noc4ccccc34)CC1)C2=O [Example 70] | – | – | – | 5-HT1A agonist activity Emax (human 5-HT1A receptor [1]): 50%
6 | – | Cn1nc2c(c1Br)C(=O)N(CCN1CCN(c3nsc4ccccc34)CC1)CC2 [Example 73] | – | – | – | 5-HT1A agonist activity Emax (human 5-HT1A receptor [1]): 62%
7 | – | O=C1c2ncccc2CCN1CCN1CCN(c2noc3cc(Cl)ccc23)CC1 [Example 124] | – | – | – | Ki (human D2 receptor): > 10000 nM
8 | 184 | COc1ccc2c(N3CCN(CCN4CCc5cccnc5C4=O)CC3)noc2c1 [Example 149] | 16 | – | 217 | Ki (human D2 receptor): > 10000 nM; D2 Ki/5-HT1A Ki (human D2 receptor): >54.3; D2 Ki/5-HT2A Ki (human D2 receptor): >46.1
9 | 1.17 | O=C1c2oc(C3CC3)nc2CCC1CCN1CCN(c2nsc3ccccc23)CC1 (stereo not drawn) [Example 67] | 65 | 0.269 | – | –
10 | – | COc1ccc2c(n1)C(=O)N(CCN1CCC(c3noc4ccccc34)CC1)CC2 [Example 187] | – | <0.05 | – | –
11 | – | Cn1ncc2c1CCCC(CCN1CCN(c3noc4ccccc34)CC1)C2=O (stereo not drawn) [Example 30] | 42 | 0.065 | 0.76 | IC50 (hERG channel; [6]): 900 nM
12 | – | COc1ccc2c(n1)C(=O)N(CCN1CCN(c3noc4ccccc34)CC1)CC2 [Example 186] | – | 0.095 | – | –
13 | – | Cc1cc2c(o1)C(=O)N(CCN1CCN(c3nsc4ccccc34)CC1)CC2 [Example 45] | 65 | 0.032 | 3.1 | IC50 (hERG channel; [6]): 7000 nM

Row | SMILES | Ki (human 5-HT1A receptor [2]) [nM] | Emax at 10 µM (human 5-HT1A receptor [1]) [%] | Metabolic stability in human hepatic microsome [3] [mL/min/mg protein] | Ki (human 5-HT2A receptor [4]) [nM] | also measured
14 | Cc1noc2c1C(=O)N(CCN1CCN(c3noc4ccccc34)CC1)CCC2 [Example 38] | 13.5 | 56 | 0.136 | 4.44 | IC50 (hERG channel; [6]): 500 nM
15 | CC1CC(CCN2CCC(c3noc4ccccc34)CC2)C(=O)c2ccn(C)c21 (stereo not drawn) [Example 82] | 0.61 | 61 | 0.072 | 0.87 | –

Reference: patent US12180213B2, “Substituted pyrazoles showing serotonin 5-HT receptor activity” (Sumitomo Pharma Co., Ltd., priority 2018, dated 2024)
